The experiment relates to HepG2 cells. The experiment can be described thus: Cellular cholesterol in HepG2 cells (cholesterol test kit). The format is cell-based, human. As to conditions: HepG2, 1 μM lovastatin, 6-hr culture. The procedure:
2) Cell Culture and Treatment • (1) Cell Source: HepG2 ATCC • (2) Condition of Culture • Medium: MEM (Minimum essential medium)+10% FBS • Incubation: 37° C., 5% CO2 • Passage and Collection: 0.05% trypsin+0.02% EDTA • (3) Cell Treatment:
Cells were cultured in petri dishes of φ×10 cm (falcon) and grown to the desired proliferation, then detached and transferred to a 6-well plate (falcon). The cells were allowed to adhere and proliferate to the desired density (about 60%-70% confluence), and then treated and grouped as indicated in the table below.
In order to minimize the interference from the cytokines and lipids in serum without sacrificing the growth, the medium was replaced with MEM+2% FBS during treatment.
For every batch of cells, each treatment was repeated in 6 replicates. The cells were treated at different time points and collected at the same time.
The cholesterol test kit from Shanghai JieMen Biotechnology Joint-Corporate was used in accordance to the manufacturer's instruction.

For the molecule `CC[C@H](C)C(=O)O[C@H]1C[C@@H](C)C=C2C=C[C@H](C)[C@H](CC[C@@H]3C[C@@H](O)CC(=O)O3)[C@H]21` [Positive Control, lovastatin], the Cellular cholesterol is on record as 34.23 ± 2.38 μg/mg protein.
